Experimental data reported in PMC7129073 (Clinical Microbiology and Infection, 2015).
In brackets after ≈: the same amount, converted by molar mass. Read-outs that look alike come from different tables or passages of the source.

Key:
Salmonella spp. = experiment: Agar dilution susceptibility, gastroenteritis isolates Cuba; type: cell-based; conditions: 34 strains, 2002
[1] = tested on: Salmonella serotype Typhimurium; experiment: Disk diffusion, food isolates Spain; type: cell-based; conditions: n = 53
S. pneumoniae (SPN) = experiment: SENTRY Brazil, NCCLS broth microdilution; type: cell-based, Streptococcus pneumoniae
H. influenzae (HI) = experiment: SENTRY Brazil, NCCLS broth microdilution; type: cell-based, Haemophilus influenzae
enterococci [2] = experiment: Disk diffusion and E-test, faecal isolates of cancer patients; type: cell-based, Enterococcus; conditions: 38 strains; gentamycin: high level
N.gonorrhoeae = experiment: microbe, parasite or virus in culture; type: cell-based; conditions: Neisseria gonorrhoeae
Acinetobacter = experiment: Disk diffusion; type: cell-based; conditions: 37 isolates selected as resistant to beta-lactams
[3] = tested on: viridans group streptococci (VgS) and Streptococcus bovis; experiment: Broth microdilution and disk diffusion; type: cell-based; conditions: nine species
Streptococcus pneumoniae [4] = experiment: BSAC agar dilution, lower respiratory isolates UK and Ireland; type: cell-based
S. pyogenes = experiment: Broth microdilution; type: cell-based, Streptococcus pyogenes; conditions: 212 isolates
nontyphoidal Salmonella = experiment: Agar dilution, isolates from chickens 1998–2004; type: cell-based, Salmonella spp.
enterococci [5] = experiment: Disk diffusion, urine isolates of BPH patients; conditions: strains isolated post-operatively
Escherichia coli O157:H7 = experiment: Kirby-Bauer susceptibility; type: cell-based; conditions: 30 strains, 1990–2003
[6] = tested on: Salmonella, other 49 serotypes; experiment: Disk diffusion, food isolates Spain; type: cell-based; conditions: n = 115
Shigella spp. = experiment: Disk diffusion, stool isolates Tehran; type: cell-based; conditions: 96 isolates
K. oxytoca isolate = experiment: MIC of qnr-positive SHV-12 producer; type: cell-based; conditions: Klebsiella oxytoca
[7] = tested on: Enterobacter cloacae (ECL); experiment: Broth microdilution; type: cell-based
Escherichia coli (ECO) = experiment: Broth microdilution; type: cell-based
Proteus mirabilis (PMI) = experiment: Broth microdilution; type: cell-based
[8] = tested on: Klebsiella pneumoniae (KPN)
Streptococcus pneumoniae [9] = experiment: Susceptibility testing; type: cell-based; conditions: 99 isolates tested
Haemophilus influenzae = experiment: Susceptibility testing; type: cell-based; conditions: conjunctival isolates 2000–2004
Staphylococcus aureus = experiment: Susceptibility testing; type: cell-based; conditions: conjunctival isolates 2000–2004
K. pneumoniae [10] = experiment: MIC; type: cell-based, Klebsiella pneumoniae
[11] = tested on: Salmonella serotype Enteritidis; experiment: Disk diffusion, food isolates Spain; type: cell-based; conditions: n = 96
Nocardia spp. = experiment: E-test on Mueller Hinton agar, 81 clinical isolates; type: cell-based
[12] = tested on: glycopeptide intermediate Staphylococcus species (GISS); experiment: VITEK II, screening plate and E test, blood isolates; type: cell-based, coagulase-negative Staphylococci; conditions: 73 GISS strains
[13] = tested on: inducible Enterobacteriaceae; experiment: SMART 2003, intraabdominal isolates; type: cell-based
Enterobacteriaceae = experiment: SMART 2003 Europe, microdilution; type: cell-based; conditions: 1948 isolates
E. coli [14] = experiment: SMART 2003 Europe, microdilution; type: cell-based, Escherichia coli; conditions: 1106 isolates
Klebsiella = experiment: SMART 2003 Europe, microdilution; type: cell-based, Klebsiella spp.; conditions: 341 isolates
N. farcinica strain = experiment: E-test on Mueller-Hinton agar; type: cell-based; conditions: Nocardia farcinica
Pseudomonas spp. = experiment: MIC; type: cell-based
E. coli [15] = experiment: E-test susceptibility; type: cell-based, Escherichia coli
K. pneumoniae [16] = experiment: E-test susceptibility; type: cell-based, Klebsiella pneumoniae
K. oxytoca = experiment: E-test susceptibility; type: cell-based, Klebsiella oxytoca
Gram-negative rods = experiment: Microscan MIC, blood culture isolates; type: cell-based
Pseudomonas aeruginosa = experiment: MIC, strains from cystic fibrosis patients; conditions: by MIC

For `CN(C)[C@@H]1C(O)=C(C(N)=O)C(=O)[C@@]2(O)C(O)=C3C(=O)c4c(O)cccc4[C@@](C)(O)[C@H]3C[C@@H]12` [tetracycline], the resistance (Salmonella spp.) was 53%, the “resistance rate (NCCLS M100-S13)” value [1] was 72% and the “% S” value (S. pneumoniae (SPN); 1998) was 72%. The “% S” value (S. pneumoniae (SPN); 1999) was 75%, the “% S” value (S. pneumoniae (SPN); 2000) was 82% and the “% S” value (S. pneumoniae (SPN); 2001) was 78%. For the same compound, the “% S” value (S. pneumoniae (SPN); 2002) was 86%, the “% S” value (S. pneumoniae (SPN); 2003) was 85% and the “% S” value (H. influenzae (HI); 1998) was 96%. For the same compound, the “% S” value (H. influenzae (HI); 1999) was 84%, the “% S” value (H. influenzae (HI); 2000) was 95% and the “% S” value (H. influenzae (HI); 2001) was 95%. The “% S” value (H. influenzae (HI); 2002) was 98%, the “% S” value (H. influenzae (HI); 2003) was 96% and the resistant strains (enterococci [2]) was 55%. The MIC (N.gonorrhoeae; strain 76mu6) was 8 µg/mL (≈ 18 µM), the MIC (N.gonorrhoeae; strain 76mu10) was 8 µg/mL (≈ 18 µM) and the MIC (N.gonorrhoeae; strain 92mu6) was 2 µg/mL (≈ 4.5 µM). For the same compound, the MIC (N.gonorrhoeae; strain 92mu13) was 2 µg/mL (≈ 4.5 µM), the resistant isolates (Acinetobacter) was 100.0% and the “% S, range between species” value [3] was 35.0 – 93.9%. For the same compound, the “resistance (PEN-NS >0.06, TET-R >1, ERY-R >0.5, CIP-R >2 mg/L)” value (Streptococcus pneumoniae [4]; Ireland 1999–2000, N 66) was 24.2%, the “resistance (same cut-offs)” value (Streptococcus pneumoniae [4]; Ireland 2000–2001, N 59) was 25.4% and the “resistance (same cut-offs)” value (Streptococcus pneumoniae [4]; Ireland 2001–2002, N 68) was 16.2%. The “resistance (same cut-offs)” value (Streptococcus pneumoniae [4]; Ireland 2002–2003, N 89) was 10.1%, the “resistance (same cut-offs)” value (Streptococcus pneumoniae [4]; Ireland 2003–2004, N 76) was 7.9% and the “resistance (same cut-offs)” value (Streptococcus pneumoniae [4]; UK 1999–2000, N 595) was 7.2%. For the same compound, the “resistance (same cut-offs)” value (Streptococcus pneumoniae [4]; UK 2000–2001, N 608) was 6.3%, the “resistance (same cut-offs)” value (Streptococcus pneumoniae [4]; UK 2001–2002, N 631) was 4.8% and the “resistance (same cut-offs)” value (Streptococcus pneumoniae [4]; UK 2002–2003, N 683) was 5.7%. For the same compound, the “resistance (same cut-offs)” value (Streptococcus pneumoniae [4]; UK 2003–2004, N 709) was 6.2%, the nonsusceptible (S. pyogenes) was 25.9% and the resistance (nontyphoidal Salmonella; Belgian collection (caecal samples; Belgium, France, Netherlands)) was 33%. It also gave a resistance (enterococci [5]) of 77.8%.
With `CCn1cc(C(=O)O)c(=O)c2ccc(C)nc21` [nalidixic acid] the resistant strains (Escherichia coli O157:H7) was 10%, the “resistance rate (NCCLS M100-S13)” value [6] was 14% and the sensitive (Shigella spp.) was 96%. It also gave an MIC (K. oxytoca isolate) of 16 µg/mL, a resistance [7]; 1984 of 2.0% and a resistance [7]; 2001 of 17.5%. For the same compound, the resistance (Escherichia coli (ECO); 1984) was 1.6%, the resistance (Escherichia coli (ECO); 2001) was 19.2% and the resistance (Proteus mirabilis (PMI); 1984) was 2.6%. It also gave a resistance (Proteus mirabilis (PMI); 2001) of 15.9%, a resistance (nontyphoidal Salmonella; Germany (carcass meat)) of 9% and a resistance [8]; 1984 of 12.2%. It also gave a resistance [8]; 2001 of 21.6%.
`NC[C@H]1O[C@H](O[C@H]2[C@H](O)[C@@H](O[C@H]3O[C@H](CO)[C@@H](O)[C@H](N)[C@H]3O)[C@H](N)C[C@@H]2N)[C@H](N)C[C@@H]1O` [tobramycin] gave a resistant isolates (Streptococcus pneumoniae [9]) of 49.5%, a resistant isolates (Haemophilus influenzae) of 2.6% and a resistant isolates (Staphylococcus aureus) of 14.6%. The susceptibility category (K. pneumoniae [10]; BSAC) was “resistant”, the “resistance rate (NCCLS M100-S13)” value [11] was 1% and the “resistance rate (NCCLS M100-S13)” value [1] was 4%. The “resistance rate (NCCLS M100-S13)” value [6] was 0%, the MIC50 (Nocardia spp.; Nocardia) was 4 µg/mL (≈ 8.56 µM) and the MIC90 (Nocardia spp.; Nocardia) was 12 µg/mL (≈ 25.7 µM). For the same compound, the MIC range (Nocardia spp.; read after 48 and 72 h) was <0.016 to 24 µg/mL, the resistance rate [12] was 91,8% and the resistant isolates (Acinetobacter) was 10.8%. The “% susceptible” value ([13]; A/P (N = 200)) was 77%, the “% susceptible” value ([13]; EU (N = 354)) was 93% and the “% susceptible” value ([13]; LA (N=113)) was 79%. For the same compound, the “% susceptible” value ([13]; NA (N = 163)) was 93%, the per cent susceptible (Enterobacteriaceae) was 93% and the per cent susceptible (E. coli [14]) was 92%. It also gave a per cent susceptible (Klebsiella) of 91%, a susceptible (Escherichia coli (ECO); NAL-resistant isolates, 2001) of 71.4% and a susceptible (Escherichia coli (ECO); NAL-susceptible isolates, 2001) of 95.0%.
In the case of `C[C@@H](O)[C@H]1C(=O)N2C(C(=O)O)=C(S[C@@H]3CN[C@H](C(=O)N(C)C)C3)[C@H](C)[C@H]12` [meropenem], the MIC (K. pneumoniae [10]; Klebsiella pneumoniae) is reported as 4 to 16 µg/mL (≈ 10.4 to 41.7 µM), the MIC (N. farcinica strain) is reported as > 32 µg/mL and the resistant isolates (Acinetobacter) is reported as 0.0%. The susceptible strains (Pseudomonas spp.) was 98%, the “% susceptible” value ([13]; A/P (N = 200)) was 100% and the “% susceptible” value ([13]; EU (N = 354)) was 99%. For the same compound, the “% susceptible” value ([13]; LA (N=113)) was 98%, the “% susceptible” value ([13]; NA (N = 163)) was 99% and the per cent susceptible (Enterobacteriaceae) was >99%. The per cent susceptible (E. coli [14]) was >99%, the per cent susceptible (Klebsiella) was 99% and the Susceptible isolates (E. coli [15]; ICU, SRGA breakpoints, tigecycline tentative S ≤2 μg/ml) was 100%. The Susceptible isolates (E. coli [15]; non ICU) was 99%, the Susceptible isolates (K. pneumoniae [16]; ICU) was 100/100% and the Susceptible isolates (K. pneumoniae [16]; non ICU) was 100/100%. For the same compound, the Susceptible isolates (K. oxytoca; ICU) was 100/100%, the Susceptible isolates (K. oxytoca; non ICU) was 100/100% and the “susceptible strains (n/N)” value (Gram-negative rods) was 16/16. It also gave a Susceptible isolates (Pseudomonas aeruginosa) of 96%.
